Results: US8143237B2, “Anti-cancer drugs, and uses relating for malignant melanoma and other cancers” (Kasina Laila Innova Pharmaceuticals Private Limited, priority 2009, dated 2012)
Values after ≈ are worked out from the molar mass of the structure shown. “Also recorded” adds a separate entry of the source. Like-named read-outs stand apart in the source and are kept apart here.

Columns and labels:
[1] = tested on: HS.531.sk normal human skin epithelial cells; type: cell-based; conditions: 3 days
Description: (§1) MTT [3-(4,5-dimethylthiazol-2-yl)-2,5-diphenyltetrazolium bromide] incorporation based cell proliferation assay was performed using standard procedure. The cytotoxic efficacies of the various selenopheno triazene compounds (compounds 1 to 16) was evaluated in both human malignant melanoma A375 cells and mouse malignant melanoma B16 F0 cells by MTT cell proliferation assay kit (Roche Applied Sciences, Germany). The assay was carried out according to the instruction provided by the vendor. Briefly, equal numbers of cells was plated in 96-well flat-bottomed plates and were incubated with both DTIC and the test compounds (compounds 1 to 16) at various concentrations for a period of three days. Vehicle control culture wells received only a maximum of 0.5% DMSO. Thereafter, 0.5 mg/ml of MTT reagent was added to each well and the microplate was incubated further for 4 h at 37° C. in presence of 5% CO2. Finally, the cells were solubilized by adding solubilizing solution and allowed to incubate at 37° C. overnight. After complete solubilization of the formazan crystals, the absorbance was read at 540 nm in a microplate reader (BioRad, USA). The results (mean OD±SD) obtained from quadruplicate wells were used in calculation to determine the inhibition of cell proliferation (50% of inhibitory concentration, IC50) of the test compounds (compounds 1 to 16) (Table 1).
Next, to check whether the Compound 1 can selectively kill the melanoma cells without or minimally affecting the normal cells, we assessed the comparative efficacy of the Compound 1 and DTIC on cell growth inhibition of HS.531.sk normal human skin epithelial cells. The growth inhibitory effect of the test compound and DTIC was assessed by MTT proliferation assay as described earlier (Example 17). The comparative efficacies of Compound 1 and DTIC in inhibiting the normal skin epithelial cell growth are depicted in FIG. 2.

HT29 colon cancer cells = test: MTT based cell proliferation assay, HT29; conditions: Homo sapiens, HT-29, read-out: Anti-tumor growth potential (IC50) in HT29
Description: as §1, with “Finally, the cells were solubilized by adding solubilizing solution and allowed to incubate at 37° C. overnight.” left out, “The results (mean OD±SD) obtained from quadruplicate wells were used in calculation to determine the inhibition of cell proliferation (50% of inhibitory concentration, IC50) of the test compounds (compounds 1 to 16) (Table 1).” left out
(§2) Anti-tumor growth potential of Compound 1 and DTIC were evaluated in various human tumor cells such as A549 lung tumor cells, DU145 prostate tumor cells, HT29 colon cancer cells and MCF-7 (ER^+) breast tumor cells in vitro, by using MTT based cell proliferation assay as described earlier (example 17). […]

B16F0 cells = test: B16 F0 mouse melanoma cell colony formation assay; type: cell-based; conditions: 8 days
Description: Inhibitory efficacy in clone formation of the Compound 1 and DTIC was tested by following the procedure described earlier with some modifications. Briefly, B 16F0 cells were harvested and seeded into 6-well plates (100 cells/ml). The cells were allowed to grow for 4 days and thereafter, the cells were incubated with DMEM containing either 0.1% DMS 0 or 100 μg/ml DTIC or different concentrations (1, 5, 10 or 20 μg/ml) of Compound 1 for further 8 days. Fresh medium containing test agents was replaced at every 24 h. Finally, the wells were washed three times with PBS and fixed in methanol for 15 min. The cells were stained with Giemsa stain and observed under microscope. The image of the stained wells were captured digitally (Kodak Image Station 4000 mM, Carestream Health Inc., New Haven, Conn.) and number of colonies were counted and analyzed by using NIH Image J software.

[2] = tested on: DU145 prostate tumor cells; test: MTT based cell proliferation assay, DU145; conditions: Homo sapiens, DU-145, read-out: Anti-tumor growth potential (IC50) in DU145
Description: as §1, with “Finally, the cells were solubilized by adding solubilizing solution and allowed to incubate at 37° C. overnight.” left out, “The results (mean OD±SD) obtained from quadruplicate wells were used in calculation to determine the inhibition of cell proliferation (50% of inhibitory concentration, IC50) of the test compounds (compounds 1 to 16) (Table 1).” left out
as §2

A549 lung tumor cells = test: MTT based cell proliferation assay, A549; conditions: Homo sapiens, read-out: Anti-tumor growth potential (IC50) in A549
Description: as §1, with “Finally, the cells were solubilized by adding solubilizing solution and allowed to incubate at 37° C. overnight.” left out, “The results (mean OD±SD) obtained from quadruplicate wells were used in calculation to determine the inhibition of cell proliferation (50% of inhibitory concentration, IC50) of the test compounds (compounds 1 to 16) (Table 1).” left out
as §2

[3] = tested on: MCF-7 (ER+) breast tumor cells; test: MTT based cell proliferation assay, MCF-7; conditions: Homo sapiens, MCF7, read-out: Anti-tumor growth potential (IC50) in MCF-7
Description: as §1, with “Finally, the cells were solubilized by adding solubilizing solution and allowed to incubate at 37° C. overnight.” left out, “The results (mean OD±SD) obtained from quadruplicate wells were used in calculation to determine the inhibition of cell proliferation (50% of inhibitory concentration, IC50) of the test compounds (compounds 1 to 16) (Table 1).” left out
as §2

[4] = tested on: B16F0 mouse melanoma cells; test: Matrigel cell invasion assay; type: cell-based; conditions: 24 h
Description: The inhibitory effects of DTIC and compound 1 on invasive ability of B16F0 were tested in cell invasion assay performed with by using Matrigel (BME-Cultrex®, R&D Systems, USA) coated cell culture inserts (Becton Dickinson, USA) with 8 μm-pore membrane. Equal number (fifty thousands) of B16F0 cells were applied in each insert well and allowed to attach for 2 h at 37° C. and in presence of 5% CO2. Thereafter, the cellular invasion through the matrigel layer was performed in presence or absence of test compounds. Either 100 μg/ml of DTIC or 20 μg/ml of Compound 1 was applied in the lower chamber of the invasion assembly. 0.1% DMSO was applied in the vehicle control culture chambers. After 24 h treatment, the matrigel layer containing cells was removed with cotton plug and the invaded cells on the other side of the membrane were fixed with methanol for 5 min and then stained with Giemsa. The stained membrane was mounted on a glass slide and number invaded cells were counted in 20 random fields (20× objective) under a light microscope (Nikon Eclipse TS 100).

[5] = tested on: human malignant melanoma A375 cells; test: MTT based cell proliferation assay, A375 cells; conditions: A-375, 72 h, three days incubation, read-out: Cell proliferation inhibition in A375 cells, IC50
Description: The cytotoxic efficacies of the various selenopheno triazene compounds (compounds 1 to 16) was evaluated in both human malignant melanoma A375 cells and mouse malignant melanoma B16 F0 cells by MTT cell proliferation assay kit (Roche Applied Sciences, Germany). The assay was carried out according to the instruction provided by the vendor. Briefly, equal numbers of cells was plated in 96-well flat-bottomed plates and were incubated with both DTIC and the test compounds (compounds 1 to 16) at various concentrations for a period of three days. […] Finally, the cells were solubilized by adding solubilizing solution and allowed to incubate at 37° C. overnight. After complete solubilization of the formazan crystals, the absorbance was read at 540 nm in a microplate reader (BioRad, USA).

[6] = tested on: Human umbilical vein endothelial cells (HUVEC); test: In vitro endothelial capillary tube formation assay; type: cell-based; conditions: 16 h
Description: In vitro capillary formation assay was performed with Human umbilical vein endothelial cells (HUVEC), cultured on 10 mg/ml basement membrane extract (BME-Cultrex®, R&D Systems, USA) bed. The protocol of in vitro endothelial tube formation assay was the same as described earlier with some modifications (Diana G et al., J. Cell Biol. 1995; Volume 130: 207-215.). Briefly, four hundred microliters of Cultrex was coated at 4° C. in each well of 24-well culture plate and allowed to gel at 37° C. for 1 h. HUVECs were plated at a density of 7.5×10^4 cells per well with 400 μl of DMEM supplemented with 10% fetal bovine serum and 4.5 g/l D-glucose. The cells were then treated with either DTIC or Compound 1 at desired concentration as indicated for 16 hours. Vehicle control cultures received only 0.1% DMSO. Pictures were taken under a Nikon Eclipse TS 100 microscope equipped with a Nikon Coolpix camera.

| SMILES | Growth inhibition of HS.531.sk normal human skin epithelial cells ([1]; 25 μg/ml) | Growth inhibition of HS.531.sk normal human skin epithelial cells ([1]; 50 μg/ml) | IC50 (HT29 colon cancer cells) | Reduction in number of B16 colonies (B16F0 cells; at 1 μg/ml) | Reduction in number of B16 colonies (B16F0 cells; at 5 μg/ml) | Reduction in number of B16 colonies (B16F0 cells; at 10 μg/ml) | Reduction in number of B16 colonies (B16F0 cells; at 20 μg/ml) | IC50 [2] | IC50 (A549 lung tumor cells) | IC50 [3] | B16 F0 melanoma tumor cell invasion vs vehicle control ([4]; 20 μg/ml, p=0.0017) | IC50 [5] | Endothelial capillary-like tube formation ([6]; 5 and 10 μg/ml) | inhibition at 100 µg/mL (B16F0 cells; Mus musculus, B16F0, 192 h, at 100 μg/ml, read-out: Inhibition of B16 colony formation (number of colonies)) | B16 F0 melanoma tumor cell invasion vs vehicle control ([4]; 100 μg/ml) | Endothelial capillary-like tube formation ([6]; 100 μg/ml) |
| --- | --- | --- | --- | --- | --- | --- | --- | --- | --- | --- | --- | --- | --- | --- | --- | --- |
| Cc1[se]c(C(N)=O)cc1/N=N/N(C)C [Compound 1, 4-[(dimethylamino)diazenyl]-5-methylselenophene-2-carboxamide] | 2.33% | 23.83% | 13.3 µg/mL (≈ 51.3 µM) | 11% | 35% | 54% | 94% | 8.97 µg/mL (≈ 34.6 µM) | 7.68 µg/mL (≈ 29.6 µM) | 7.03 µg/mL (≈ 27.1 µM) | significantly reduced; also recorded: significantly inhibited the invasion | 9.81 µg/mL (≈ 37.9 µM) | inhibition of capillary formation in a dose dependent manner; also recorded: exhibited anti-angiogenic properties | – | – | – |
| CN(C)N=Nc1[nH]cnc1C(N)=O [DTIC, 5-(3,3-dimethyl-1-trizeno)-imidazole-4-carboxamide, reference compound] | 34.58% | 43.46% | 141 µg/mL (≈ 774 µM) | – | – | – | – | 58.5 µg/mL (≈ 321 µM) | 95 µg/mL (≈ 521 µM) | 85.1 µg/mL (≈ 467 µM) | – | 70.1 µg/mL (≈ 385 µM) | – | 35.8% | could not significantly inhibit; also recorded: failed to inhibit the tumor cell invasion | promoted capillary formation; also recorded: could not inhibit the endothelial capillary formation |
